# Data as given in paper PMC10791743, “Selective CK1α degraders exert antiproliferative activity against a broad range of human cancer cell lines” (Nature Communications, 2024).
# Where “and” joins values, the source holds several entries; their conditions need not be identical. Equal entries are not always repeated.
# Experiments:
# [1] = system: UCSD-AML1 cells; test: CTG viability, UCSD-AML1; assay type: cell-based, human; settings: for IC50: UCSD-AML cells, replicate values
# Description: After establishing the potency and selectivity of our lead CK1α degraders, we investigated their effect on a panel of AML and ALL cell lines (Fig. 3a).
# The primary screen was performed in 384-well format using the CellTiter Glo (CTG) luminescent cell viability assay (Promega) as previously described. 3630 compounds from the St. Jude proprietary molecular glue library were screened against 9 human cancer cell lines (HD-MB03, MB004, MB002, MHH-CALL4, MOLM-13, TF-1, HEL, OCI-AML3, AML193). Each cell line was cultured in the complete medium recommended by the vendor and seeded in Corning 8804 BC white 384-well assay plates at densities of 1000, 1000, 1500, 7500, 1250, 156, 625, 1250, 1250 cells per well for HD-MB03, MB004, MB002, MHH-CALL4, MOLM-13, TF-1, HEL, OCI-AML, AML193, respectively. After overnight incubation at 37 °C in a humidified 5% CO2 incubator, cells were treated with compounds in dose–response format using a Pintool on a Biomek FX^P Laboratory Automation Workstation (Beckman Coulter). After 72 h of incubation, cell proliferation was assessed using a CellTiter-Glo (CTG) luminescent cell viability assay (Promega) according to the manufacturer’s instructions. Luminescence signal was measured using an EnVision plate reader (PerkinElmer).
# HD-MB03 cell line was obtained from Drs. Milde, Witt and Deubzer[52]. HD-MB03 and MB004 cells were grown in a neurobasal medium supplemented with glutamine, streptomycin, penicillin, B27, EGF, bFGF, and heparin as previously described. MB002 and MB004 cells were obtained from Dr Yoon-Jae Cho[54]. MB002 cells were cultured in 80% neurobasal medium supplemented with glutamine, streptomycin, penicillin, B27, and 20% conditioned media from previous passages; EGF, bFGF, and heparin were also added to the medium. MHH-CALL4, NALM-16, MHH-CALL-2 cells were obtained from the German Collection of Microorganisms and Cell Cultures GmbH (DSMZ, Germany). PER-117 cells were obtained from Telethon Kids Institute (Perth, Australia). The cells were cultured in RPMI1640 medium supplemented with 10% FBS (Hyclone), Penicillin/Streptomycin (100 units/mL), and Glutamine (100 µM) except for MHH-CALL-2 cells where 20% FBS were used. MOLM-13 cells were obtained from DSMZ (ACC 554) and cultured in RPMI-1640 media (Gibco) supplemented with 20% FBS (R&D Systems) and 100 U/ml penicillin-streptomycin (Gibco). HNT-34 cells were purchased from DSMZ (ACC 600) and cultured in RPMI-1640 media supplemented with 20% FBS and 100 U/ml penicillin-streptomycin. Kasumi-3 cells were purchased from ATCC (CRL-2725) and cultured in RPMI-1640 media supplemented with 20% FBS and 100 U/ml penicillin-streptomycin. […]
# [2] = Plasma protein binding assay (RED), mouse; assay type: in vitro ADME
# Description: (§1) page 33: the need for further incubation. Following quenching, all plates were thoroughly mixed at 600 rpm for 10 minutes and centrifuged at 4000 rpm for 20 minutes. Supernatants were transferred to […] MS/MS analysis. Plasma stability was evaluated by determining the half-life through a least-squares fit of multiple time points based on first-order kinetics. Plasma protein binding assay: Test compound stock solutions were prepared at a concentration of 10 mM in DMSO. A Single-Use RED (Rapid Equilibrium Dialysis) device was acquired from Thermo Scientific (Cat. No: 99006, Rockford, IL). The sample preparation for plasma protein binding followed a modified version of Waters' method6. After thawing, plasma was centrifuged at 1000 rpm for 10 minutes to eliminate any particulates. Each compound was then prepared at a concentration of 10 µM in either human or mouse plasma. In the plasma protein binding assessment, 300 µL of spiked plasma solutions were introduced into the sample chamber (indicated by the red ring), while 550 µL of DPBS was added to the adjacent chamber. The plate was sealed and incubated at 37°C on an orbital shaker (100 rpm) for 4 hours. Post -incubation, 50 µL aliquots were withdrawn from each side of the insert and dispensed into a 96 -well storage plate. To create analytically identical sample matrices (matrix matching), an equivalent volume of blank plasma or DPBS was added to the necessary wells, followed by quenching w ith 3-fold (v:v) cold acetonitrile containing warfarin as the internal standard. Subsequently, the sealed plates were well -mixed at 600 rpm for 10 minutes and then centrifuged at 4000 rpm for 20 minutes. Supernatants were transferred to analytical […] Test compound concentrations were quantified in both the buffer and plasma chambers by determining peak areas relative to the internal standard. The percentage of the test compound bound to plasma was calculated using the following equation (4): %Free = (Concentration buffer chamber / concentration plasma chamber) x 100% and equation (5) %Bound = 100% - %Free.
# [3] = Plasma protein binding assay (RED), human; assay type: in vitro ADME
# Description: as §1
# [4] = mouse plasma, single replicates
# [5] = human plasma, single replicates
SMILES,IC50 ([1]; Homo sapiens),IC50 [1],Activity against UCSD-AML1 cells ([1]; CTG),"fraction unbound at 4 h, 10 µM ([2]; mouse, plasma)","fraction unbound at 4 h, 10 µM ([3]; human, plasma)","AVG %Bound ([2]; mouse plasma, average of 3 replicates)","%Bound [2, 4]","%Free [2, 4]","AVG %Bound ([3]; human plasma, average of 3 replicates)","%Bound [3, 5]","%Free [3, 5]"
Cc1cccc(C(=O)Nc2ccc3c(c2)CN(C2CCC(=O)NC2=O)C3=O)c1 (stereo not drawn) [SJ0040],3 nM,2.1 nM,,,,,,,,,
O=C1CCC(N2Cc3cc(Nc4noc5ccccc45)ccc3C2=O)C(=O)N1 (stereo not drawn) [SJ3149],,1 nM and 0.4 nM and 1.1 nM,sub-nanomolar activity,0.038,0.023,,,,,,
O=C1CCC(N2Cc3cc(Nc4noc5ccccc45)ccc3C2=O)C(=O)N1 (stereo not drawn) [SJ001043149-1],,,,,,96.2%,96.641% and 95.489% and 96.3948%,3.359% and 4.511% and 3.605%,97.7%,97.5829% and 97.7158% and 97.77%,2.417% and 2.284% and 2.23%
